Laboratory results reported in ChEMBL document CHEMBL1221281, “Discovery of 2-(4-((1H-1,2,4-triazol-1-yl)methyl)-5-(4-bromophenyl)-1-(2-chlorophenyl)-1H-pyrazol-3-yl)-5-tert-butyl-1,3,4-thiadiazole (GCC2680) as a potent, selective and orally efficacious cannabinoid-1 receptor antagonist” (Bioorg Med Chem, 2010).

Columns and labels:
Mus musculus [1] = experiment: Antiobesity activity in diet-induced obesity C57BL/6 mouse model assessed as reduction of body weight at 10 mg/kg, po qd for 14 days; format: functional; set-up: scale not given: the % may be the effect or the level left
Cannabinoid receptor 1 = Cannabinoid receptor 1 (Rattus norvegicus, UniProt P20272)
Description: Displacement of [3H]CP-55940 from CB1 receptor in Sprague-Dawley rat cerebellum after 1 hr by liquid scintillation counting

Cytochrome P450 2C9 = Cytochrome P450 2C9 (Homo sapiens, UniProt P11712); experiment: Inhibition of CYP2C9 in human liver microsomes after 30 mins; format: ADME, Microsome
Rattus norvegicus [2] = experiment: AUC (0 to infinity) in Sprague-Dawley rat at 5 mg/kg, po; format: ADME, organism-based, Plasma; set-up: time infinity, dose 5 mg/kg, route oral; details: in vivo
[3] = Cmax in Sprague-Dawley rat at 5 mg/kg, po; format: ADME, organism-based; set-up: dose 5 mg/kg, route oral; details: in vivo
[4] = target: Voltage-gated inwardly rectifying potassium channel KCNH2 (Homo sapiens, UniProt Q12809); experiment: Inhibition of human ERG at holding potential of -80 mV to +40 mV
[5] = Oral bioavailability in Sprague-Dawley rat at 5 mg/kg, po; format: ADME, organism-based; details: in vivo
[6] = Mutagenic activity in Salmonella Typhimurium TA100 assessed as number of spontaneous and drug-induced revertants after 48 hrs by Ames test; format: toxicity; details: salmonella enterica subsp. enterica serovar typhimurium
Cytochrome P450 2D6 = Cytochrome P450 2D6 (Homo sapiens, UniProt P10635); experiment: Inhibition of CYP2D6 in human liver microsomes after 30 mins; format: ADME, Microsome
Rattus norvegicus [7] = experiment: Clast in Sprague-Dawley rat at 5 mg/kg, po; format: ADME, organism-based; set-up: dose 5 mg/kg, route oral; details: in vivo
[8] = Tmax in Sprague-Dawley rat at 5 mg/kg, po; format: ADME, organism-based; set-up: dose 5 mg/kg, route oral; details: in vivo
[9] = Cmax in Sprague-Dawley rat at 1 mg/kg, iv; format: ADME, organism-based; set-up: dose 1 mg/kg, route intravenous; details: in vivo
[10] = Half life in Sprague-Dawley rat at 5 mg/kg, po; format: ADME, organism-based; set-up: dose 5 mg/kg, route oral; details: in vivo
Rattus norvegicus [11] = experiment: Clast in Sprague-Dawley rat at 1 mg/kg, iv; format: ADME, organism-based; set-up: dose 1 mg/kg, route intravenous; details: in vivo
Rattus norvegicus [12] = experiment: AUC (0 to infinity) in Sprague-Dawley rat at 1 mg/kg, iv; format: ADME, organism-based, Plasma; set-up: time infinity, dose 1 mg/kg, route intravenous; details: in vivo
[13] = Half life in Sprague-Dawley rat at 1 mg/kg, iv; format: ADME, organism-based; set-up: dose 1 mg/kg, route intravenous; details: in vivo
[14] = Ratio of drug level in brain to plasma in Sprague-Dawley rat; format: ADME
Rattus norvegicus [15] = experiment: Antiobesity activity in diet-induced obesity Sprague-Dawley rat model assessed as reduction of body weight administered at 10 mg/kg, po qd for 13 days; format: functional; set-up: scale not given: the % may be the effect or the level left
Cytochrome P450 1A2 = target: T1, Cytochrome P450 1A2 (Homo sapiens, UniProt P05177); experiment: Inhibition of CYP1A2 in human liver microsomes after 30 mins; format: ADME, Microsome
T1 sequence (P05177 whole entry): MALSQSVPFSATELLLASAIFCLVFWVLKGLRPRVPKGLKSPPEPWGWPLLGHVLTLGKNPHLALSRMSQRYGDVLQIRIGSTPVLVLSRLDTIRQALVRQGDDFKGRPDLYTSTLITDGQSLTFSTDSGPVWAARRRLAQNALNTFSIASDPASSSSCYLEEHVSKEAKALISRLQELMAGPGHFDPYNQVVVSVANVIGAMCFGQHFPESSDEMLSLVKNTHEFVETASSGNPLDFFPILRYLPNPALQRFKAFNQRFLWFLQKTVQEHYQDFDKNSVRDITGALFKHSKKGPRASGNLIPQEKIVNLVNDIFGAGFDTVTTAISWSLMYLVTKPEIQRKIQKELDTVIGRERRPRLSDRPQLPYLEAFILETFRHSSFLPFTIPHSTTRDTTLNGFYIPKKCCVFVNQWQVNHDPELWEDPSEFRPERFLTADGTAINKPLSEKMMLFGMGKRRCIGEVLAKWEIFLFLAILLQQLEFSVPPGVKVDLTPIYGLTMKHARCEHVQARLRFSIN

Nucleic Acid = experiment: Induction of DNA damage up to 50 uM after 2 hrs by comet assay; format: nucleic-acid assay
[16] = Clearance in Sprague-Dawley rat at 1 mg/kg, iv; format: ADME, organism-based; set-up: dose 1 mg/kg, route intravenous; details: in vivo
Cytochrome P450 3A4 = Cytochrome P450 3A4 (Homo sapiens, UniProt P08684); experiment: Inhibition of CYP3A4 in human liver microsomes after 30 mins; format: ADME, Microsome
Cannabinoid receptor 2 = Cannabinoid receptor 2 (Homo sapiens, UniProt P34972); experiment: Displacement of [3H]WIN-55212-2 from human CB2 receptor expressed in CHO-K1 cells after 1 hr by liquid scintillation counting; format: cell-based
[17] = Selectivity ratio of IC50 for human CB2 receptor to IC50 for CB1 receptor in Sprague-Dawley rat cerebellum; format: tissue-based
[18] = Cytotoxicity against human HuH7 cells; format: cell-based; details: Huh-7
HEK293 = experiment: Cytotoxicity against human HEK293 cells; format: cell-based
Mus musculus [19] = experiment: Antiobesity activity in diet-induced obesity C57BL/6 mouse model assessed as reduction of body weight at 3 mg/kg, po qd for 13 days; format: functional; set-up: scale not given: the % may be the effect or the level left
HCT-116 = experiment: Cytotoxicity against human HCT116 cells; format: cell-based
Vero = experiment: Cytotoxicity against african green monkey Vero cells; format: cell-based; details: Chlorocebus sabaeus

Sequence of Cannabinoid receptor 1 (P20272 whole entry): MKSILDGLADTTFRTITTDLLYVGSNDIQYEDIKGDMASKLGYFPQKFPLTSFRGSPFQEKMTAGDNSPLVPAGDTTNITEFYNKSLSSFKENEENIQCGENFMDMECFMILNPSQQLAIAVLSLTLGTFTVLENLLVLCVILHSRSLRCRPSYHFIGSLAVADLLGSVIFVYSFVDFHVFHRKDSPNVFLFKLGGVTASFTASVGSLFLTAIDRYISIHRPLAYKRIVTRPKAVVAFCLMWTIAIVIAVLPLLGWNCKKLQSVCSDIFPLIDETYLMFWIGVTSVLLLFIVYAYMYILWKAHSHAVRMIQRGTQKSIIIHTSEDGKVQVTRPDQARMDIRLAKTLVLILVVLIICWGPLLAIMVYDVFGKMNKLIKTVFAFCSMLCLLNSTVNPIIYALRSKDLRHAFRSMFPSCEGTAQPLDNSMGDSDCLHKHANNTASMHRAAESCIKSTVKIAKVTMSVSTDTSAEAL
Sequence of Cannabinoid receptor 2 (P34972 whole entry): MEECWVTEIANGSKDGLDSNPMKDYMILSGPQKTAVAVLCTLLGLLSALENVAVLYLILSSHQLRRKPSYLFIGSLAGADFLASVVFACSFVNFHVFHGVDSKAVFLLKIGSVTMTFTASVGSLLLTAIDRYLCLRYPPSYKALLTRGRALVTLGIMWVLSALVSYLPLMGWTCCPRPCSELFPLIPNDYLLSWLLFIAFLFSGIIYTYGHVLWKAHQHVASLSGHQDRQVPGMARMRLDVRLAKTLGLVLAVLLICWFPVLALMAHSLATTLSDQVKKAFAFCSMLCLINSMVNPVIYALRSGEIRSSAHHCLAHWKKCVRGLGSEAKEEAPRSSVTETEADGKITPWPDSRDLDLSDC
Sequence of Voltage-gated inwardly rectifying potassium channel KCNH2 (Q12809 whole entry): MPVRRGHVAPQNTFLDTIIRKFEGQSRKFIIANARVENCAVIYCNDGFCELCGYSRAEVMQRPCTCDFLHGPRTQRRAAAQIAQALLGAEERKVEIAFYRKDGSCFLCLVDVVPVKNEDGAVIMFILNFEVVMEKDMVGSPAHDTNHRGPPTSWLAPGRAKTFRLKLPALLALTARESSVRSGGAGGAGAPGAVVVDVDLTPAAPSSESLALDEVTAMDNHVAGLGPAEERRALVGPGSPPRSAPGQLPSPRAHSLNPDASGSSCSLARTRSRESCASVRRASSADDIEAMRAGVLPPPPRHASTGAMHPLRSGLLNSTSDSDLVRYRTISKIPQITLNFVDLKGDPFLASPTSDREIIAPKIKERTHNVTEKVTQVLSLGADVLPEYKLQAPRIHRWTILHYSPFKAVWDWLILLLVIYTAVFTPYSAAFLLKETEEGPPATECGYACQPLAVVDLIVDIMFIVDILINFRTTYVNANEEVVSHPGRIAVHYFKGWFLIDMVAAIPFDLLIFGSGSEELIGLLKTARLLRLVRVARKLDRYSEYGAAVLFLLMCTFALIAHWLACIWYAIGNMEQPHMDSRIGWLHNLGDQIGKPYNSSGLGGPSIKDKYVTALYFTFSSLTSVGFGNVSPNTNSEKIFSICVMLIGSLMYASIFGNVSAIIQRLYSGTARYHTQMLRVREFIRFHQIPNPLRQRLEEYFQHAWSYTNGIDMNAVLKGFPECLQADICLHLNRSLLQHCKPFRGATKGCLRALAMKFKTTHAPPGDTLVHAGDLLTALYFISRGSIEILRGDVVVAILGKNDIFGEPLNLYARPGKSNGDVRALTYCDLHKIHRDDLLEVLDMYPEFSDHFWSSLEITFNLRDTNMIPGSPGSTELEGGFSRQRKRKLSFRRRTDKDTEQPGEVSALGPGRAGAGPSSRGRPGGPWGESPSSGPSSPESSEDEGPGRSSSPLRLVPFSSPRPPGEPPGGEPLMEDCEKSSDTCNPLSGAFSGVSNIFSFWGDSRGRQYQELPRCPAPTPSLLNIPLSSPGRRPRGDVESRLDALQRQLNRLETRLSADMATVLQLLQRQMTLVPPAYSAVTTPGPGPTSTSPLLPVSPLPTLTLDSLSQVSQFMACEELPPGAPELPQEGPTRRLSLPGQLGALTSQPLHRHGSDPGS
Sequence of Cytochrome P450 3A4 (P08684 whole entry): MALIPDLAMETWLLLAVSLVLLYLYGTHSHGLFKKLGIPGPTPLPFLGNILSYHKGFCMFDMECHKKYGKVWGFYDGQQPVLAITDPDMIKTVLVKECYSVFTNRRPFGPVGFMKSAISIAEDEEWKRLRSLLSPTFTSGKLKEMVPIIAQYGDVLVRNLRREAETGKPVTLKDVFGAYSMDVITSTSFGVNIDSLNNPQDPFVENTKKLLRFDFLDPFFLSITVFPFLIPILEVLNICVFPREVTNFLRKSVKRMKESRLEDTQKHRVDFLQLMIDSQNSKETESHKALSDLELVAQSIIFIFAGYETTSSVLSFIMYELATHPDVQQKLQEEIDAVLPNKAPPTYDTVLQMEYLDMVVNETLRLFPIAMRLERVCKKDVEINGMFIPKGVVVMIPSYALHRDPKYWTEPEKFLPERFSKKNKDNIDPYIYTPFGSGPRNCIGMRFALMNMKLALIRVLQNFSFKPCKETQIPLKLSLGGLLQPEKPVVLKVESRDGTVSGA
Sequence of Cytochrome P450 2C9 (P11712 whole entry): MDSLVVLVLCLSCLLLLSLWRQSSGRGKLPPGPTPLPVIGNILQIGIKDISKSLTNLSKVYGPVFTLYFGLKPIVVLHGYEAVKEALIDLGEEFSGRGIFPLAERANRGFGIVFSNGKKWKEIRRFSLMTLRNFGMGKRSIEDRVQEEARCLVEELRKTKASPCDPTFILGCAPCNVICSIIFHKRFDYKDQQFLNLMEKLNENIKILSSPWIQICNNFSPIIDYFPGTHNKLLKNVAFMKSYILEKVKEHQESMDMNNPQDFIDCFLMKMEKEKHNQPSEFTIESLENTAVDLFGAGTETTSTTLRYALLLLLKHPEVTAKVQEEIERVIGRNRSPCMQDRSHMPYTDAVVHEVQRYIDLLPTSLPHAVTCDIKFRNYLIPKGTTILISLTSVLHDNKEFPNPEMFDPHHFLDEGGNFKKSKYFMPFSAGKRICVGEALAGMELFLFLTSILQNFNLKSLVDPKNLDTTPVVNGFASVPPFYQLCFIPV
Sequence of Cytochrome P450 2D6 (P10635 whole entry): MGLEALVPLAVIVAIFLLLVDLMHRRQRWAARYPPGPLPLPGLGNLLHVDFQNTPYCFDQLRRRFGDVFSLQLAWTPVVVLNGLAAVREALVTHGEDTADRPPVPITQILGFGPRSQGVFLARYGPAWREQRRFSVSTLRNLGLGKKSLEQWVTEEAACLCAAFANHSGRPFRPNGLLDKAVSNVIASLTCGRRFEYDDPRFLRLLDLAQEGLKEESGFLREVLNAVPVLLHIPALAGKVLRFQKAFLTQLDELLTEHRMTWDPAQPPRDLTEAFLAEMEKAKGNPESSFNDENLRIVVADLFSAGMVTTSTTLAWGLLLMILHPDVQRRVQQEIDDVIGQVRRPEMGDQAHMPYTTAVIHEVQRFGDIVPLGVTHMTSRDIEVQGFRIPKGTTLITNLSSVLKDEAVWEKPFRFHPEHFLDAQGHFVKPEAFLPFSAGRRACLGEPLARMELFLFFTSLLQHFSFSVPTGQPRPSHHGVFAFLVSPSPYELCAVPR

FC(F)(F)C1(c2nnc(-c3nn(-c4ccccc4Cl)c(-c4ccc(Cl)cc4)c3Cn3cncn3)s2)CC1
Activity (Mus musculus [1]): 23.68% | IC50 (Cannabinoid receptor 1): 1.66 nM

Clc1ccc(-n2nc(-c3nnc(C4(c5ccccc5)CC4)s3)c(Cn3cncn3)c2-c2ccc(Br)cc2)c(Cl)c1
Activity (Mus musculus [1]): 23.68% | IC50 (Cannabinoid receptor 1): 2.23 nM

Clc1ccc(C2(c3nnc(-c4nn(-c5ccc(Cl)cc5Cl)c(-c5ccc(Br)cc5)c4Cn4cncn4)s3)CC2)cc1
Activity (Mus musculus [1]): 23.68% | IC50 (Cannabinoid receptor 1): 0.877 nM

C[C@H](NC(=O)C(C)(C)Oc1ccc(C(F)(F)F)cn1)[C@@H](Cc1ccc(Cl)cc1)c1cccc(C#N)c1 [TARANABANT]
IC50 (Cytochrome P450 2C9): 930 nM | AUC (Rattus norvegicus [2]): 83.64 min/µg/mL | Cmax [3]: 360 ng/mL | IC50 [4]: 14200 nM | bioavailability [5]: 67.6% | Activity [6]: Non-toxic | IC50 (Cytochrome P450 2D6): 590 nM | Activity (Mus musculus [1]): 29.55% | Clast (Rattus norvegicus [7]): 20 ng/mL | Tmax [8]: 0.5 h | Cmax [9]: 470 ng/mL | half-life [10]: 14.8 h | Clast (Rattus norvegicus [11]): 10 ng/mL | AUC (Rattus norvegicus [12]): 24.75 min/µg/mL | half-life [13]: 2.76 h | BPR [14]: 52% | Activity (Rattus norvegicus [15]): 17.16% | IC50 (Cytochrome P450 1A2): > 20000 nM | Activity (Nucleic Acid): Non-toxic | clearance [16]: 40.8 mL/min/kg

Cc1c(C(=O)NN2CCCCC2)nn(-c2ccc(Cl)cc2Cl)c1-c1ccc(Cl)cc1 [RIMONABANT]
AUC (Rattus norvegicus [2]): 33.4 min/µg/mL | Cmax [3]: 290 ng/mL | IC50 [4]: 4800 nM | bioavailability [5]: 53.1% | Activity [6]: Non-toxic | IC50 (Cytochrome P450 2D6): > 20000 nM | Activity (Mus musculus [1]): 18.02% | Tmax [8]: 0.5 h | Cmax [9]: 300 ng/mL | half-life [10]: 8.23 h | Clast (Rattus norvegicus [11]): 10 ng/mL | AUC (Rattus norvegicus [12]): 12.59 min/µg/mL | half-life [13]: 3.09 h | Activity (Rattus norvegicus [15]): 10.61% | IC50 (Cytochrome P450 1A2): > 20000 nM | Activity (Nucleic Acid): Non-toxic | IC50 (Cytochrome P450 3A4): > 20000 nM | clearance [16]: 82.4 mL/min/kg

FC(F)(F)c1ccccc1-n1nc(-c2nnc(C3(C(F)(F)F)CCC3)s2)c(Cn2cncn2)c1-c1ccc(Br)cc1
IC50 (Cannabinoid receptor 2): 27.6 nM | IC50 (Cannabinoid receptor 1): 4.38 nM | Ratio IC50 [17]: 6.3

FC(F)(F)C1(c2nnc(-c3nn(-c4ccc(Cl)cc4Cl)c(-c4ccc(Br)cc4)c3Cn3cncn3)s2)CC1
Activity (Mus musculus [1]): 23.68% | IC50 (Cannabinoid receptor 1): 0.991 nM

FC(F)(F)C1(c2nnc(-c3nn(-c4ccccc4Cl)c(-c4ccc(Br)cc4)c3Cn3cncn3)s2)CCC1
IC50 (Cannabinoid receptor 2): 73.6 nM | IC50 (Cannabinoid receptor 1): 0.848 nM | Ratio IC50 [17]: 87

CC1(c2nnc(-c3nn(-c4ccc(Cl)cc4Cl)c(-c4ccc(Cl)cc4)c3Cn3cncn3)s2)CC1
Activity (Mus musculus [1]): 23.68% | IC50 (Cannabinoid receptor 1): 2.4 nM

CC(C)(C)c1nnc(-c2nn(-c3ccc(Cl)cc3Cl)c(-c3ccc(Br)cc3)c2Cn2cncn2)s1
IC50 (Cytochrome P450 2C9): 2600 nM | IC50 (Cannabinoid receptor 2): 430 nM | IC50 (Cytochrome P450 2D6): > 20000 nM | Activity (Mus musculus [1]): 23.68% | IC50 (Cannabinoid receptor 1): 1.54 nM | IC50 (Cytochrome P450 1A2): 2700 nM | Activity (Nucleic Acid): Non-toxic | IC50 (Cytochrome P450 3A4): > 20000 nM

Cc1ccc(C2(c3nnc(-c4nn(-c5ccc(Cl)cc5Cl)c(-c5ccc(Cl)cc5)c4Cn4cncn4)s3)CC2)cc1
Activity (Mus musculus [1]): 23.68%

Clc1ccc(-c2c(Cn3cncn3)c(-c3nnc(C4(c5ccc(Cl)cc5)CC4)s3)nn2-c2ccc(Cl)cc2Cl)cc1
Activity (Mus musculus [1]): 23.68%

FC(F)(F)C1(c2nnc(-c3nn(-c4ccccc4Cl)c(-c4ccc(Cl)cc4)c3Cn3cncn3)s2)CCC1
Activity (Mus musculus [1]): 23.68% | IC50 (Cannabinoid receptor 1): 1.01 nM

FC(F)(F)C1(c2nnc(-c3nn(-c4ccc(Cl)cc4Cl)c(-c4ccc(Cl)cc4)c3Cn3cncn3)s2)CCC1
IC50 (Cytochrome P450 2C9): > 20000 nM | IC50 (Cannabinoid receptor 2): 505 nM | IC50 [4]: > 10000 nM | EC50 [18]: > 100000 nM | Activity [6]: Non-toxic | IC50 (Cytochrome P450 2D6): > 20000 nM | Activity (Mus musculus [1]): 23.68% | EC50 (HEK293): > 100000 nM | Activity (Mus musculus [19]): 34.45% | EC50 (HCT-116): > 100000 nM | Activity (Rattus norvegicus [15]): 14.43% | EC50 (Vero): > 100000 nM | IC50 (Cytochrome P450 1A2): > 20000 nM | Activity (Nucleic Acid): Non-toxic | IC50 (Cytochrome P450 3A4): > 20000 nM | Ratio IC50 [17]: 175

CC1(c2nnc(-c3nn(-c4ccc(Cl)cc4Cl)c(-c4ccc(Br)cc4)c3Cn3cncn3)s2)CC1
Activity (Mus musculus [1]): 23.68% | IC50 (Cannabinoid receptor 1): 2.91 nM

CC(C)(C)c1nnc(-c2nn(-c3ccccc3Cl)c(-c3ccc(Cl)cc3)c2Cn2cncn2)s1
Activity (Mus musculus [1]): 23.68%

CC(C)(C)c1nnc(-c2nn(-c3ccc(Cl)cc3Cl)c(-c3ccc(Cl)cc3)c2Cn2cncn2)s1
IC50 (Cannabinoid receptor 2): 1140 nM | Activity (Mus musculus [1]): 23.68% | IC50 (Cannabinoid receptor 1): 1.73 nM | Ratio IC50 [17]: 659

FC(F)(F)C1(c2nnc(-c3nn(-c4ccc(Cl)cc4Cl)c(-c4ccc(Cl)cc4)c3Cn3cncn3)s2)CC1
IC50 (Cannabinoid receptor 2): 3630 nM | Activity (Mus musculus [1]): 23.68% | Ratio IC50 [17]: 1590

FC(F)(F)C1(c2nnc(-c3nn(-c4ccccc4Cl)c(-c4ccc(Br)cc4)c3Cn3cncn3)s2)CC1
IC50 (Cannabinoid receptor 2): 124 nM | IC50 (Cannabinoid receptor 1): 0.992 nM | Ratio IC50 [17]: 125

FC(F)(F)C1(c2nnc(-c3nn(-c4ccc(Cl)cc4Cl)c(-c4ccc(Br)cc4)c3Cn3cncn3)s2)CCC1
Activity (Mus musculus [1]): 23.68% | IC50 (Cannabinoid receptor 1): 3.27 nM

Cc1ccc(C2(c3nnc(-c4nn(-c5ccc(Cl)cc5Cl)c(-c5ccc(Br)cc5)c4Cn4cncn4)s3)CC2)cc1
Activity (Mus musculus [1]): 23.68% | IC50 (Cannabinoid receptor 1): 2.74 nM

FC(F)(F)c1ccccc1-n1nc(-c2nnc(C3(C(F)(F)F)CCC3)s2)c(Cn2cncn2)c1-c1ccc(Cl)cc1
IC50 (Cannabinoid receptor 2): 76.8 nM | Activity (Mus musculus [1]): 23.68% | IC50 (Cannabinoid receptor 1): 6.48 nM | Ratio IC50 [17]: 11.8

Clc1ccc(-c2c(Cn3cncn3)c(-c3nnc(C4(c5ccc(Cl)cc5)CC4)s3)nn2-c2ccccc2Cl)cc1
IC50 (Cannabinoid receptor 2): 265 nM | Activity (Mus musculus [1]): 23.68% | IC50 (Cannabinoid receptor 1): 0.966 nM | Ratio IC50 [17]: 274

Clc1ccc(-c2c(Cn3cncn3)c(-c3nnc(C4(c5ccccc5)CC4)s3)nn2-c2ccc(Cl)cc2Cl)cc1
Activity (Mus musculus [1]): 23.68%
